Measurements published in US4812443A, “Methods for enhancing differentiation and proliferation of hematopoietic progenitor cells” (Kuraray Co., Ltd., priority 1984, dated 1989).

Assays:
[1] = test system: late erythrocytic progenitor cells (CFU-e); test: Differentiation and proliferation of late erythrocytic progenitor cells (CFU-e), cluster colony formation; assay type: cell-based, mouse (BDF1-strain); details: 20 μg/ml, Runs 2 to 4
Protocol: The mouse bone marrow cells used in the following experiments were all prepared as follows:
BDF1 -strain mice (female, 8 to 10 weeks old) were killed by cervical dislocation, and the femurs were collected under sterile conditions. The bone marrow cells were flushed out from the femurs with α-medium, and formed into a single cell suspension by repeated aspiration with a 26-gauge needle fitted to a 1 ml-syringe. The cells were washed two times with α-medium by centrifugation at 200×G for 5 minutes and used in the following experiments.
In accordance with the method of Murphy et al. mentioned above, mouse bone marrow cells were plated at 2.5×10^4 nuclear cells into 0.5 ml of α-medium containing 0.25 unit of erythropoietin, 30% fetal bovine serum, 1% bovine serum albumin, 0.1 mM 2-mercaptoethanol and 0.4% methyl cellulose with 10 μg of dolichol dissolved in 1 μl of ethanol, 10 μg of dolichyl phosphate dispersed in 0.5 μl of dimethyl sulfoxide, 1 μl of ethanol or 0.5 μl of dimethyl sulfoxide in a 16 mm.phi. tissue culture plate, and incubated at 37° C. in a humidified atmosphere of 5% carbon dioxide in air for 2 days. The number of cluster colonies consisting of 8 to 64 erythroblasts derived from CFU-e in the tissue culture plate was scored with an inverted microscope. The experiment was carried out by 6 replica assays for each group, and the average number of the colonies formed was determined. The results are shown in Table 3, in the rows of Runs 2 to 4.

mice [2] = test: Neuropharmacological test using mice (Irwin's method); assay type: in vivo, mouse (ddY-strain); details: 150, 300 and 600 mg/kg i.p.
Text: (§1) Since the dolichol is a water-insoluble oily liquid, it was used as a solution in sesame oil in the case of oral administration, and as a suspension in a nonionic surfactant (HCO-60, a trade name for a product of Nikko Chemical Co., Ltd.) in the case of intraperitoneal administration and in an in vitro test in the following experiment.
(§2) In the following experiment, ddY-strain male mice, Wistar-strain male rats (Shizuoka Laboratory Animal Center), Japanese white male rabbits (Carely) and Hartley-strain male guinea pigs (Clea Japan Inc.) were used. The animals were kept under conditions including a temperature of 23±1° C., a humidity of 55±10%, an illuminating time (7:00 am to 9.00 pm) and 15 ventilations per hour. The mice and rats were fed with solid feeds MF (a product of Oriental Yeast Co., Ltd.) and the guinea pigs and rabbits were fed with solid feeds GM-3 and RM-1 (Funabashi Farm Co.). They were allowed to take tap water freely. The animals were preliminarily kept for more than one week, and those which were healthy in general conditions were used in the experiments.
ddY-strain male mice, 6 per group, were used, and their changes in behavior, nervous symptoms, autonomic nervous symptoms and toxic symptoms were observed, analyzed and recorded in accordance with the Irwin's method of observation. […]

extracted ileum = test: Peripheral action, extracted ileum of guinea pigs; parameters: species or system guinea pig (Hartley-strain); details: up to 10^-4 g/ml; 32° C.
Text: as §1
In the following experiment, ddY-strain male mice, Wistar-strain male rats (Shizuoka Laboratory Animal Center), Japanese white male rabbits (Carely) and Hartley-strain male guinea pigs (Clea Japan Inc.) were used. The animals were kept under conditions including a temperature of 23±1° C., a humidity of 55±10%, an illuminating time (7:00 am to 9.00 pm) and 15 ventilations per hour. […]
Hartley-strain male guinea pigs (350 to 400 g), 3 per group, were used, and the extracted ileum samples were suspended in Tyrode solution at 32° C. through which air was introduced. The contraction of the ileum was recorded on an ink-writing oscillograph (EMP-3004, Nippon Photoelectric Co. through an isotonic transducer (TD-112S, Nippon Photoelectric Co.). The direct action of dolichol and the antagonistic action of dolichol against acetylcholine, histamine and nicotine in a concentration of 10^-6 g/ml, 10^-5 g/ml, and 10^-4 g/ml, respectively, were examined.

Diuretic action in rats = assay type: in vivo, rat (Wistar-strain); details: 150, 300 and 600 mg/kg; 6 hours after administration; vs control
Text: as §1, §2
Wistar-strain male rats (80-90 g), 6 per group, were used. Immediately after administration of dolichol to the rats, normal saline solution was orally administered to the rats in a dose of 2.5 ml/100 g. […] Urine was taken 6 hours after administration of dolichol, and its amount was measured.

[3] = test system: maximal electroshock seizure; test: Anticonvulsive action (maximal electroshock seizure) in mice; assay type: in vivo, mouse (ddY-strain); details: 150, 300 and 600 mg/kg; one hour after administration; 40 mA, 0.4 msec, 50 Hz, 0.5 sec; vs control
Text: as §1, §2
ddY-male mice (27-30 g), 6 per group, were used. One hour after administration of dolichol to the mice, an electric current was passed through the corneas of the mice under conditions of 40 mA, 0.4 msec, 50 Hz and 0.5 sec, and the time of duration of tonic extension (T. E.) was measured.

mice [4] = test: Acute toxicity of dolichol in mice; assay type: in vivo, mouse (ddY-strain); details: 5,000 mg/kg orally or 1,000 mg/kg intraperitoneally
Protocol: (1) Dolichol synthesized in Referential Example 1 below was used as a solution in sesame oil in the case of oral administration, or as a suspension in HCO-60 (a trade name for a nonionic surfactant made by Nikko Chemical Co., Ltd.) in the case of intraperitoneal administration.
ddY-strain mice (21-27 g), 6 per group, were used. Dolichol was administered to the mice in a dose of 5,000 mg/kg orally, or 1,000 mg/kg intraperitoneally on the 1st day of the test, and the mice were then observed for toxic symptoms and mortality for seven days. The body weights of the mice were measured before administration and on the 1st and 7th days. Control groups were each given sesame oil or HCO-60, and observed and weighed in the same way as in the case of the groups to which dolichol was administered. On the 7th day, all the mice were dissected and visually observed.

Water solubility = assay type: physicochemical

**Q.** What does the source list for dolichol?
**A.** Number of colonies formed in the dolichols-added group (CFU-e) ([1]; 2 days, erythropoietin 0.25 unit, mean ± S.E., 6 replicas, solvent controls 124.2 ± 2.7, 246.0 ± 5.0, 124.7 ± 2.9): 151.0 ± 2.2; Percent increase (%) of colony formation (CFU-e) ([1]; vs solvent-added control group): +21.6%; Effect on behaviors, nervous symptoms, autonomic nervous symptoms and toxic symptoms (mice [2]): no effect was observed; Direct action on extracted ileum (extracted ileum): no direct action; Diuretic action (amount of urine) (Diuretic action in rats): no significant difference was noted; Time of duration of tonic extension (T. E.) [3]: no significant difference was noted; Changes in body weight (mice [4]; 1st and 7th days, vs control): no sigificant difference was noted; Abnormality in dissection (mice [4]; 7th day): No abnormality was noted; Mortality (mice [4]; seven days): no case of death in all of the mice tested; Water solubility (Water solubility): water-insoluble
